Broadly, the EC50 is the concentration needed to bring the measured effect to its halfway point. For orientation: Kd means the constant that tells how readily two partners part at equilibrium. High values mean weaker binding, low ones tighter binding.

Assay [1] has as its target T1, ASKθ (group III) (Arabidopsis thaliana, UniProt Q96287).
T1 sequence (Q96287 1-472): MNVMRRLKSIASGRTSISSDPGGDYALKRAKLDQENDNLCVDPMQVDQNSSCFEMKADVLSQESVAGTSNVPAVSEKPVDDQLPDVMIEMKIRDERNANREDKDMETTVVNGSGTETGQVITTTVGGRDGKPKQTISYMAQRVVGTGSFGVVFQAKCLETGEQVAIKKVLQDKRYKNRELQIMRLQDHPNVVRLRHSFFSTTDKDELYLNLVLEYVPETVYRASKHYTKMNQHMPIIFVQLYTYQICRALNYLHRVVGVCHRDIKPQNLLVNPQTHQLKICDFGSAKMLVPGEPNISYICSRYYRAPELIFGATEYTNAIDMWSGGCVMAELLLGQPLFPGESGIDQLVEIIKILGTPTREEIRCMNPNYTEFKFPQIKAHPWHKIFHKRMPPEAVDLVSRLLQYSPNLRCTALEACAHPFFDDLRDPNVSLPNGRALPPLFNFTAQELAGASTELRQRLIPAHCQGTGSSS
The experiment in a line: ASK kinase assay with MBP as substrate, ASKθ. As to conditions: 10 μM abrasin; read-out: residual activity. It counts as biochemical. As for the experimental part:
Coomassie staining was used as a loading control. b, Autoradiography of kinase assays with nine ASKs with MBP as a substrate in the presence or absence of 10 μM abrasin.
For in vitro kinase assays, MBP, MBP-BES1, and MBP-bes1 (20 ng each) were incubated with GST-BIN2 or GST-BRI1 kinase (200 ng each) in 20 μl of kinase buffer (20 mM Tris [pH 7.5], 100 mM NaCl, and 12 mM MgCl2) and 10 μCi ^32P-γATP. After incubation at 37° C. for 40 min, the reactions were stopped by adding 20 μl of 2×SDS buffer and boiling at 94° C. for 5 min. Proteins were resolved by a PAGE gel and phosphorylation was detected by exposing the dried gel to X-ray film. Proteins from 35S::bes1-GFP transgenic plants were used for phosphatase (CIP) treatments as described (Fankhauser et al., 1999).
Besides BIN2, nine additional GSK-3 kinases (also designated ASKs for Arabidopsis SHAGGY-related kinases) divided into four subgroups (I-IV) have been identified in Arabidopsis (Jonak and Hirt, 2002; Yoo et al. 2006). To determine the specificity of abrasin, its effect on the kinase activity of all ASKs was analyzed with myelin basic protein (MBP) as a general substrate.

In assay [2] the target is AtMPK6 (Arabidopsis thaliana, UniProt Q39026). In words: Kinase assay with AtMPK6 and MBP as substrate. It counts as biochemical. As to conditions: 10 μM abrasin. The protocol: Coomassie staining was used as a loading control. b, Autoradiography of kinase assays with nine ASKs with MBP as a substrate in the presence or absence of 10 μM abrasin. The second member of group IV, ASKκ, had no kinase activity and was not included in the analysis. c, Autoradiography of kinase assays with AtMPK4, AtMPK6 and MBP as a substrate (left) and with AtAUR1 kinase and histone H3 as a substrate (right) in the presence or absence of 10 μM abrasin.
For in vitro kinase assays, MBP, MBP-BES1, and MBP-bes1 (20 ng each) were incubated with GST-BIN2 or GST-BRI1 kinase (200 ng each) in 20 μl of kinase buffer (20 mM Tris [pH 7.5], 100 mM NaCl, and 12 mM MgCl2) and 10 μCi ^32P-γATP. After incubation at 37° C. for 40 min, the reactions were stopped by adding 20 μl of 2×SDS buffer and boiling at 94° C. for 5 min. Proteins were resolved by a PAGE gel and phosphorylation was detected by exposing the dried gel to X-ray film. […]
Besides BIN2, nine additional GSK-3 kinases (also designated ASKs for Arabidopsis SHAGGY-related kinases) divided into four subgroups (I-IV) have been identified in Arabidopsis (Jonak and Hirt, 2002; Yoo et al. 2006). To determine the specificity of abrasin, its effect on the kinase activity of all ASKs was analyzed with myelin basic protein (MBP) as a general substrate. […]

For assay [3], the system named is Arabidopsis thaliana seedlings. The experiment in a line: Lateral root formation / root elongation of seedlings on agar plates. It counts as in vivo. The following applies: Arabidopsis thaliana; read-out: root elongation and lateral root development inhibited, EC50-value. As for the experimental part:
FIG. 3: (A) Phenotypic characterization. WT plants were grown under standard conditions on agar plates. […] Left panel: control plant. Middle panel: abrasin treated plant. Right panel: BL treated plant. (B) Dose response measurements of abrasin using lateral root formation as an indicator of brassinosteroid like activity. Error bars represent standard error of the mean. […] Osram) at 22° C. Three days after germination compounds were added to the 96-well plates at a final concentration of 50 μM. Plants were screened six days after germination for brassinosteroid-related phenotypes. For further phenotypical analysis, all plants were grown on vertically oriented square plates (Greiner Labortechnik, Austria) with solid medium derived from standard Murashige and Skoog medium under the same conditions. For the hypocotyl-elongation assay, plants were grown in the dark at 22° C. under the same conditions.

The target in assay [4] is T2, GST-BIN2 (Arabidopsis thaliana, UniProt Q39011).
T2 sequence (Q39011 1-380): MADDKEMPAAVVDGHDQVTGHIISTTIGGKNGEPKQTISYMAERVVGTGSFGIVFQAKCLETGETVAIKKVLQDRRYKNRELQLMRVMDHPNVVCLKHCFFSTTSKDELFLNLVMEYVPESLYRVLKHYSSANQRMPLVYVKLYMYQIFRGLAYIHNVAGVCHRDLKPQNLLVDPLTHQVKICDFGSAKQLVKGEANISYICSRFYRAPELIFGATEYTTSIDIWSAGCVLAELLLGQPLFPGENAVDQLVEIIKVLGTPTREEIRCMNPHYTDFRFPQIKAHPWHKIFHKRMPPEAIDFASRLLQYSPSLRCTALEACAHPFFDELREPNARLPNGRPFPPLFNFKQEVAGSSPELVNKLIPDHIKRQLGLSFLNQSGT
In words: SPR analysis of binding to immobilized GST-BIN2. As for the experimental part:
FIG. 13: Abrasin directly interacts with BIN2. SPR sensorgrams for abrasin binding to GST-BIN2 after injection of different abrasin concentrations as indicated. […] Reference and blank data are subtracted. The experiment was performed in triplicate. Biacore T100 was used to analyze interaction of abrasion with BIN2. Using amine coupling, purified GST-BIN2 was immobilized in the flow cell of a Series S CM5 Sensor Chip (Research Grade, Biacore AB). HBS-EP (Biacore AB) was used as running buffer, flow rate was set at 5 μl/min. The surface of the chip was activated by injecting a mixture of EDC (0.2 M) and NHS (0.05 M) for 10 min. Subsequently, 20 μg/ml GST-BIN2 in 10 mM sodium acetate buffer (pH 6.0) was injected for 20 min. The immobilization level of GST-BIN2 was≈20,000 RU. The chip was then flushed with 1 M ethanolamine (pH 8.5) for 10 min to deactivate the surface. A flow cell treated with a cycle of activation and deactivation without immobilized ligand was used as a reference. […] Different concentrations of abrasin were injected at a flow rate of 30 μl/min over the reference and the GST-BIN2 flow cell for 90 s, followed by 180 s of buffer flow (dissociation phase). Zero concentration samples were used as blanks. The flow cell temperature was set to 25° C.

Chain of AtMPK6 (Q39026 whole entry): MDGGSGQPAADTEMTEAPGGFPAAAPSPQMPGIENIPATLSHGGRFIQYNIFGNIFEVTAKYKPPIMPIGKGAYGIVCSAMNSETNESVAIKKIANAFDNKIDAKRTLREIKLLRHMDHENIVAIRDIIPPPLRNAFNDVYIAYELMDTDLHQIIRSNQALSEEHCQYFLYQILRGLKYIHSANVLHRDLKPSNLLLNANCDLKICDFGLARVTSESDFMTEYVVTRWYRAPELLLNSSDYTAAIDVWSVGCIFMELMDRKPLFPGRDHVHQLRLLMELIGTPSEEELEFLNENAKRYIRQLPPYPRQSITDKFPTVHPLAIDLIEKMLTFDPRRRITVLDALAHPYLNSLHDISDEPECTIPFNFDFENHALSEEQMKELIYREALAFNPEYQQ

For `O=C(O)CCC(=O)Nc1ccc(Br)cn1` [abrasin, 4-[(5-bromo-2-pyridinyl)amino]-4-oxobutanoic acid], the remaining activity at 10 µM in assay [1] worked out at 20%. The “effect on kinase activity” value in assay [2] is “no effect”. Further, the EC50 in assay [3] was determined as 20 µM. The “concentration from which a clear SPR response starts” value in assay [4] was no less than 10 µM. In assay [4] (1:1 interaction model, 25° C.), this compound displayed a Kd of 199 µM and a kd of 0.081 s⁻¹. The kon in assay [4] (1:1 interaction model, 25° C., read-out: ka) worked out at 407 M⁻¹ s⁻¹.

For the origin of these results see US8273775B2, “Non-steroidal brassinosteroid mimetic” (priority 2006, dated 2012).
